Columns and labels:
[1] = tested on: IMR-32 Neuroblastoma cells; experiment: Erastin-induced ferroptosis in IMR-32 neuroblastoma cells (Sytox Green cell death readout); format: cell-based; details: Homo sapiens; IMR-32 cells, 10 μM erastin, compounds 1 nM to 1 μM, triplicate; read-out: IC50, antiferroptotic activity in response to erastin-induced ferroptosis
Experimental: In the present invention the potency of a compound inhibiting (or reducing) ferroptosis and/or oxytosis are determined in in vitro or in vivo assays. Typically in vitro assays are used to measure the potency of a candidate compound. Examples of suitable in vitro assays are cellular assays. One non-limiting example of an assay involves the use of the IMR-32 neuroblastoma cell line. The latter is stimulated to enter into ferroptosis upon stimulation with 10 μM erastin, a documented ferroptosis inducer (see for example Dixon et al (2012) Cell 149, 1060-1072 and ferroptosis inhibitors are evaluated for the prevention of erastin induced ferroptosis. Yet another assay is based the glutamate-induced cell death in the hippocampal cell line HT22 and ferroptosis/oxytosis inhibitors are evaluated for the prevention of cell death (see Henke N. et al (2013) Cell Death and Disease 4, e470). Still another assay is based on the sorafinib induced cell death (described to be iron dependent cell death) in hepatocellular carcinoma cells and ferroptosis inhibitors are evaluated for the prevention of cell death (see Louandre C. et al (2013) Int. J. Cancer 133, 1732). The calculated potency of a compound inhibiting ferroptosis and/or oxytosis is typically depicted as an IC50 value. Examples of suitable in vivo assays are typically pre-clinical disease models of for example mice for the diseases benefiting the application of ferroptosis and/or oxytosis inhibitors, as described herein. One non-limiting example of an in vivo assay is based on inducing liver damage in mice by administering the herbicide diquat dibromide monohydrate and ferroptosis inhibitors are evaluated based on reduced levels of liver transaminases in serum (see Ran Q et al (2004) J. Biol. Chem. 279, 53, 55137).
The IC50 values for the individual compounds of the invention were determined in the neuroblastoma, IMR-32 cell line. In brief, IMR-32 cells were subjected to 10 μM erastin, the latter compound is known to induce ferroptosis. A concentration gradient (ranging from 1 nM to 1 μM) of the compounds was applied to the cells. These experiments were performed in a 96-well format (in triplicate), and cell death was analyzed in a fluorescent plate reader by use of a fluorescent cell death dye (1.5 μM Sytox Green). The IC50 values depicted in Table 1 are the concentration values for the individual compounds which are able to overcome ferroptosis.

[2] = Plasma stability, human plasma; format: in vitro ADME; details: 37° C., remaining parent compound, read-out: Plasma stability (% recovery after 6 h), Human
Experimental: (§1) 5 μl of a 10 mM stock solution of the compound in DMSO was added to 995 μl of plasma to obtain a 50 μM final solution. The mixture was gently shaken for 6 h at 37° C. Aliquots of 100 μl were taken at various time points (0, 0.5 h, 1 h, 2 h, 3 h and 6 h) and diluted with 400 μl of cold methanol (stored at 4° C.). The suspension was centrifuged at 14000 rpm for 5 min. 50 μl of the supernatant was diluted with 950 μl of methanol and analysed with LC/MS/MS. The samples were analysed in triplicate. The experiment was done in duplicate. […] Enalapril maleate was used as a control in mice, rats, and in human.

[3] = Microsomal (metabolic) stability, human liver microsomes; details: human, liver microsomes
Source text: (§2) By using the measured microsomal in vitro t1/2, a calculated value for the intrinsic clearance Clint can be determined. This value states the measure in which a drug that is not bound to plasma proteins is irreversibly removed from the body by the liver. This value is expressed in mL/min/kg which can be interpreted as the volume of blood in mL that is cleared of a drug per minute per kilogram of body weight. The CLint is less sensitive to used variables in ADME assays since the amount of microsomal protein and the volume of the incubation are all taken into account. (Sohlenius-Sternbeck et al., Xenobiotica, 2012, 42, 841-853)
(§3) Liver microsomes (20 mg protein/ml), NADPH regenerating system solutions A & B and 5 mM stock compound solution (100% DMSO) are prepared. The reaction mixture finally contains 713 μL purified water, 200 μL 0.5 M potassium phosphate pH 7.4, 50 μL NADPH regenerating system solution A (BD Biosciences Cat. No. 451220), 10 μL NADPH regenerating system solution B (BD Biosciences Cat. No. 451200) and 2 μL of the compound stock solution (10 μM final concentration). The reaction mixture is warmed to 37° C. for 5 minutes in a water bath and the reaction is initiated by addition of 25 μL of liver microsomes (0.5 mg protein/ml final concentration). At different time points (0 min-15 min-30 min-60 min-120 min-240 min-360 min-24 h), 20 μL is withdrawn and 80 μL cold acetonitrile is added on ice for 10 minutes. Then the mixtures are centrifuged at 13 000 rpm for 5 min at 4° C. The supernatant is further diluted in 90% water/MeCN (1/25) to fall within the range of the LC/MS/MS analysis. At each time point, the compound is analysed using LC/MS/MS with the same UPLC system as described above. A standard curve of six points was made to fit the measured concentrations. Verapamil was used as a positive control.
(§4) All obtained readouts were processed using Microsoft Excel. In order to determine the microsomal half-life t1/2 of the compounds, the rate constant k was determined by plotting the exponential decay graphs using GraFit. Microsomal t1/2 was determined using the following formula: […]

[4] = Microsomal (metabolic) stability, rat liver microsomes; details: rat, liver microsomes
Source text: as §2, §3, §4

[5] = Plasma stability, mouse plasma; format: in vitro ADME; details: 37° C., remaining parent compound, read-out: Plasma stability (% recovery after 6 h), Mouse
Experimental: as §1

[6] = Kinetic solubility (turbidimetric method); format: physicochemical; details: 10 mM PBS pH 7.4, 2% DMSO, test range 3.125-200 μM, 2 h at 37° C.
Experimental: A turbidimetric method was used. First a series of DMSO compound stock solutions was prepared ([…]). An aliquot of 4 μL stock solution was added to 196 μL PBS buffer (pH 7.4). A series of concentrations were prepared (3.13-200 μM), including a blank on a microtiter plate. (2% DMSO-D6) The microtiter plate was shaken for 10 seconds and incubated for 2 hours at 37° C. When there was no turbidity measured at a given concentration the sample was assumed to be dissolved.

[7] = Plasma stability, rat plasma; format: in vitro ADME; details: 37° C., remaining parent compound, read-out: Plasma stability (% recovery after 6 h), Rat
Experimental: as §1

[8] = Microsomal (metabolic) stability, mouse liver microsomes; details: liver microsomes, pH 7.4
Source text: as §2, §3, §4

recovery at 6 h, 50 μM [2]: 100% | CLint scaled at 10 µM ([3]; pH 7.4): 22.6 ± 8.1 mL/min/kg | half-life at 10 µM ([3]; pH 7.4, Microsomal stability (t1/2), human liver microsomes, 0.5 mg protein/ml, 10 μM compound, 37° C.): 58.8 ± 21 min | CLint scaled at 10 µM ([4]; pH 7.4): 326 ± 13.2 mL/min/kg | half-life at 10 µM ([4]; pH 7.4, Microsomal stability (t1/2), rat liver microsomes, 0.5 mg protein/ml, 10 μM compound, 37° C.): 10.4 ± 0.42 min | recovery at 6 h, 50 μM [5]: 100% | Solubility (kinetic) [6]: 50 to 100 µM | recovery at 6 h, 50 μM [7]: 100% | CLint scaled at 10 µM [8]: 1220 ± 48 mL/min/kg | half-life at 10 µM [8]: 3.06 ± 0.12 min
Compound: O=S(=O)(NCCN1CCOCC1)c1ccc(NC2CCCCC2)c(NCc2ccccc2)c1 [Compound 35, 3-(benzylamino)-4-(cyclohexylamino)-N-(2-morpholinoethyl)benzenesulfonamide]
IC50 [1]: 24 nM

Reference: patent publication US11339124B2, “3-(benzylamino)-4-(cyclohexylamino)-n-(2-(piperazin-1-yl)ethyl)benzenesulfonamide derivatives and related ferrostatin-1 analogues as cell death inhibitors for treating e.g. stroke” (VIB VZW, priority 2018, dated 2022)
